Test results: publication PMC8550792, “Evolution of kinase polypharmacology across HSP90 drug discovery” (Cell Chemical Biology, 2021)

Experiments:
Assay in all cases: biochemical
Assay type in all cases: biochemical
382 unique human kinases [1] = target: T1, 382 unique human kinases (Homo sapiens, UniProt P22455, V550M); details: FGFR4 (V550M), 10 uM; for remaining activity at 10 µM: read-out: % Enzyme Activity (relative to DMSO controls)
T1 construct: purchased Reaction Biology (HotSpot contract assay)

382 unique human kinases [2] = target: T2, 382 unique human kinases (Homo sapiens, UniProt Q9NRM7); details: LATS2, 10 uM; for remaining activity at 10 µM: read-out: % Enzyme Activity (relative to DMSO controls)
T2 construct: purchased Reaction Biology (HotSpot contract assay)
T2 sequence (Q9NRM7 1-1088): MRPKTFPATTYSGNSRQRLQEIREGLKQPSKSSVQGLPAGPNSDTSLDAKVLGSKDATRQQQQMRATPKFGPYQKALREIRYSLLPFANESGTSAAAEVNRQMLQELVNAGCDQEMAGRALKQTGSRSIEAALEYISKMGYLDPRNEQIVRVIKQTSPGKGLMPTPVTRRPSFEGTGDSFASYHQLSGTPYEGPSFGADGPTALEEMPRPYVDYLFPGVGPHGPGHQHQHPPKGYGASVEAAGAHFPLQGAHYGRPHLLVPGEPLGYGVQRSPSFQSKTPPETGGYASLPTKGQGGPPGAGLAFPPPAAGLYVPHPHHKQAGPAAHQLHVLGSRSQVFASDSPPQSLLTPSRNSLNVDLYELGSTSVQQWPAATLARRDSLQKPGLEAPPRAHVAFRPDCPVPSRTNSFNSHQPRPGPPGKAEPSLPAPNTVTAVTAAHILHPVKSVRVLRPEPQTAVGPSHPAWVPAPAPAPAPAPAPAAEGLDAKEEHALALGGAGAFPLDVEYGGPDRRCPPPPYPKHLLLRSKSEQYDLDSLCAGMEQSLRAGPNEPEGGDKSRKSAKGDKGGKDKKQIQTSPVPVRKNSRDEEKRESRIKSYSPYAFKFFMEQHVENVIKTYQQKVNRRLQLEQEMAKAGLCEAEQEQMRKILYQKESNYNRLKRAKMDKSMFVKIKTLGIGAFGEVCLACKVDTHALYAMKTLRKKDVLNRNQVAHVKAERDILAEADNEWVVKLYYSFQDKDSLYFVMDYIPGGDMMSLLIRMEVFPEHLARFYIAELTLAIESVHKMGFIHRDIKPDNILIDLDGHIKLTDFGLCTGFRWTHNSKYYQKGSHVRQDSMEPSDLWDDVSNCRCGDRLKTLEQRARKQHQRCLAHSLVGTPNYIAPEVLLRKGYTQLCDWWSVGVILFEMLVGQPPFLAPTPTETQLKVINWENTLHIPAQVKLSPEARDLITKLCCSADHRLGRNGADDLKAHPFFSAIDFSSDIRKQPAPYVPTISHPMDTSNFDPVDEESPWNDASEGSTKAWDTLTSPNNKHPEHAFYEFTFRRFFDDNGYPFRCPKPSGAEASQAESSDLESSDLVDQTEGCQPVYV

382 unique human kinases [3] = target: T3, 382 unique human kinases (Homo sapiens, UniProt Q6P5Z2); details: kinase PKN3/PRK3, compound 10 uM; for remaining activity at 10 µM: read-out: % Enzyme Activity (relative to DMSO controls)
T3 construct: purchased Reaction Biology (HotSpot contract assay)

382 unique human kinases [4] = target: T4, 382 unique human kinases (Homo sapiens, UniProt Q8IVH8); details: kinase GLK/MAP4K3, compound 10 uM; for remaining activity at 10 µM: read-out: % Enzyme Activity (relative to DMSO controls)
T4 construct: purchased Reaction Biology (HotSpot contract assay)
T4 sequence (Q8IVH8 1-894): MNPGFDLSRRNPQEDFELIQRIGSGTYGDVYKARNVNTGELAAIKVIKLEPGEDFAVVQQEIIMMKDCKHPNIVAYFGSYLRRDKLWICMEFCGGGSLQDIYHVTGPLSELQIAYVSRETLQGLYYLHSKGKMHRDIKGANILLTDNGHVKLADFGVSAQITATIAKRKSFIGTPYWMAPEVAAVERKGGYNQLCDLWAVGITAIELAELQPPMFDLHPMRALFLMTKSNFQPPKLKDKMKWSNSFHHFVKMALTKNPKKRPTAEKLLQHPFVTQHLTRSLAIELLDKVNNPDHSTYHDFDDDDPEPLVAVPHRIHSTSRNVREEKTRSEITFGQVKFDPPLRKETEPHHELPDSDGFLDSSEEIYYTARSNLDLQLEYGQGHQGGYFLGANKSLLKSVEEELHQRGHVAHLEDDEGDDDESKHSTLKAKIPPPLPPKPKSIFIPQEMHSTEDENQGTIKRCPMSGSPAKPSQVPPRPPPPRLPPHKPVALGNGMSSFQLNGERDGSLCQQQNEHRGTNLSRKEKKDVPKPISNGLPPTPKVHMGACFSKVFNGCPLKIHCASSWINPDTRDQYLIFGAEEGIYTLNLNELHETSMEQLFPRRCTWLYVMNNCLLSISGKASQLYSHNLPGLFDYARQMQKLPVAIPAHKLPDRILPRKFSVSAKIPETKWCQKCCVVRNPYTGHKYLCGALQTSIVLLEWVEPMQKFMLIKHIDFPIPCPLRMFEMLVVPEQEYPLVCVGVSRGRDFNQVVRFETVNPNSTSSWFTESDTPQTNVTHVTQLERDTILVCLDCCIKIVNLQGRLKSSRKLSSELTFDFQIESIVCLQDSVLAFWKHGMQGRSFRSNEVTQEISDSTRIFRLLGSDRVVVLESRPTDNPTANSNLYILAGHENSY

382 unique human kinases [5] = target: T5, 382 unique human kinases (Homo sapiens, UniProt Q9UBE8); details: NLK, 10 uM; for remaining activity at 10 µM: read-out: % Enzyme Activity (relative to DMSO controls)
T5 construct: purchased Reaction Biology (HotSpot contract assay)
T5 sequence (Q9UBE8 1-527): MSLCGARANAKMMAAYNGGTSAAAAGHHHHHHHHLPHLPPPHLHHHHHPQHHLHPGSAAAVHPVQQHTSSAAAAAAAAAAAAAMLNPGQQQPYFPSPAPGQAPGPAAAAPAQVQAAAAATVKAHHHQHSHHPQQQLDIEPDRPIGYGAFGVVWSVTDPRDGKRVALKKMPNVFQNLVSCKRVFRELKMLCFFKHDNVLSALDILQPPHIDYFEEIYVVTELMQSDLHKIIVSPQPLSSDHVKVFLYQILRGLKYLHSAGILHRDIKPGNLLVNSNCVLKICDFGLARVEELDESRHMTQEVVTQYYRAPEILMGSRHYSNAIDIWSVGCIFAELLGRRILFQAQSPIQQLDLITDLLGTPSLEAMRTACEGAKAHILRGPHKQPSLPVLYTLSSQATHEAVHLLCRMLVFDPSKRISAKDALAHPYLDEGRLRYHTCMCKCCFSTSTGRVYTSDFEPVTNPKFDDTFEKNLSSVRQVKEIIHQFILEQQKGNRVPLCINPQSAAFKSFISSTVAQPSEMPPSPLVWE

382 unique human kinases [6] = target: T6, 382 unique human kinases (Homo sapiens, UniProt P10721, D816V/V560G); details: c-Kit (V560G/D816V), [ATP] 20 µM, compound 10 uM; for remaining activity at 10 µM: read-out: % Enzyme Activity (relative to DMSO controls)
T6 construct: purchased Reaction Biology (HotSpot contract assay)

382 unique human kinases [7] = target: T7, 382 unique human kinases (Homo sapiens, UniProt P07333); details: FMS, [ATP] 100 µM, compound 10 uM; for remaining activity at 10 µM: read-out: % Enzyme Activity (relative to DMSO controls)
T7 construct: purchased Reaction Biology (HotSpot contract assay)
T7 sequence (P07333 20-972): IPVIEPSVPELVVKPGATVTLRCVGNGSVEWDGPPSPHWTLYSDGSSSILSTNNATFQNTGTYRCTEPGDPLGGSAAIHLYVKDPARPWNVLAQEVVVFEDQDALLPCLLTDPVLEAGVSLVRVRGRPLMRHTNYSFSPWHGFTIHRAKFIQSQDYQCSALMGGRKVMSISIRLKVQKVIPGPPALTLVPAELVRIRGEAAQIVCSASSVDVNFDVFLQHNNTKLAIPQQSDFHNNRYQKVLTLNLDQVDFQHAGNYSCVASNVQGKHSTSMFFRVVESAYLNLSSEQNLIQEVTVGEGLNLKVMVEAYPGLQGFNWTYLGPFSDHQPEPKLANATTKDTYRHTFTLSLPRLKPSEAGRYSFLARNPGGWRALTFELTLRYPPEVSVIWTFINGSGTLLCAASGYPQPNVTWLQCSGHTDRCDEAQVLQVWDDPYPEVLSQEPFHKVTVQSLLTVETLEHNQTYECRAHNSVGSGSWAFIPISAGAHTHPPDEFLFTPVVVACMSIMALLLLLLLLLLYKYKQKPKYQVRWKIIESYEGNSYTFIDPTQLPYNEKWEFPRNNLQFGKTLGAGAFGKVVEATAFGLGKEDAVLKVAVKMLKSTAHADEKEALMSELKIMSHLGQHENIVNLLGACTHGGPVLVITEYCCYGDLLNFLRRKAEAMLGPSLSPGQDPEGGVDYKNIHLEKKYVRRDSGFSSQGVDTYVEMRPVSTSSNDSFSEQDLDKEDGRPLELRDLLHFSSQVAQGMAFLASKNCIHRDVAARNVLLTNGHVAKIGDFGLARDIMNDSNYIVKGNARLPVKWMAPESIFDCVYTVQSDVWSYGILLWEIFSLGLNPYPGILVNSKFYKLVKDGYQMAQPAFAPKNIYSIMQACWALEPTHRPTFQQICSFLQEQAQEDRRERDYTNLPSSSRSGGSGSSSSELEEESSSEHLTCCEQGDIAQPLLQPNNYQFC

T1 sequence (P22455 22-802 V550M): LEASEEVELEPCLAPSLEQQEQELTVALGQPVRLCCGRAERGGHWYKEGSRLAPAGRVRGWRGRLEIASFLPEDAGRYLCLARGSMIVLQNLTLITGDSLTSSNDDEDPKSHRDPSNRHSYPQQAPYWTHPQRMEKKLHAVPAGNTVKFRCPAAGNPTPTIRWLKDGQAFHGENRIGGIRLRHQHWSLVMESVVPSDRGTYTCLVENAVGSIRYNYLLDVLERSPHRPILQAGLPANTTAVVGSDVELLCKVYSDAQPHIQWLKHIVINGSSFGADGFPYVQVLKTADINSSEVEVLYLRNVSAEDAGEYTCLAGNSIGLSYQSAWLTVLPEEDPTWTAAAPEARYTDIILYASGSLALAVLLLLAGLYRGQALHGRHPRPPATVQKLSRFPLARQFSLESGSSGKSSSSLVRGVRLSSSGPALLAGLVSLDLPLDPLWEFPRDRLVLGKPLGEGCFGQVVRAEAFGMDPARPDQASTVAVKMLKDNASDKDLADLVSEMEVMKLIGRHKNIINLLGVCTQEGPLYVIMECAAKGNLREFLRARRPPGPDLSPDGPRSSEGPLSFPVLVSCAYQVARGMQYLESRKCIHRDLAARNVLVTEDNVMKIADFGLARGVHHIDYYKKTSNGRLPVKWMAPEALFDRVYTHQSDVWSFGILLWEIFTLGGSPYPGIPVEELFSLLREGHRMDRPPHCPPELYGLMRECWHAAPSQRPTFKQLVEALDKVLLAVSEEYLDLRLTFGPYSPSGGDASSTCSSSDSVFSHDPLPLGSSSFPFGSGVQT
T6 sequence (P10721 26-976 V560G/D816V): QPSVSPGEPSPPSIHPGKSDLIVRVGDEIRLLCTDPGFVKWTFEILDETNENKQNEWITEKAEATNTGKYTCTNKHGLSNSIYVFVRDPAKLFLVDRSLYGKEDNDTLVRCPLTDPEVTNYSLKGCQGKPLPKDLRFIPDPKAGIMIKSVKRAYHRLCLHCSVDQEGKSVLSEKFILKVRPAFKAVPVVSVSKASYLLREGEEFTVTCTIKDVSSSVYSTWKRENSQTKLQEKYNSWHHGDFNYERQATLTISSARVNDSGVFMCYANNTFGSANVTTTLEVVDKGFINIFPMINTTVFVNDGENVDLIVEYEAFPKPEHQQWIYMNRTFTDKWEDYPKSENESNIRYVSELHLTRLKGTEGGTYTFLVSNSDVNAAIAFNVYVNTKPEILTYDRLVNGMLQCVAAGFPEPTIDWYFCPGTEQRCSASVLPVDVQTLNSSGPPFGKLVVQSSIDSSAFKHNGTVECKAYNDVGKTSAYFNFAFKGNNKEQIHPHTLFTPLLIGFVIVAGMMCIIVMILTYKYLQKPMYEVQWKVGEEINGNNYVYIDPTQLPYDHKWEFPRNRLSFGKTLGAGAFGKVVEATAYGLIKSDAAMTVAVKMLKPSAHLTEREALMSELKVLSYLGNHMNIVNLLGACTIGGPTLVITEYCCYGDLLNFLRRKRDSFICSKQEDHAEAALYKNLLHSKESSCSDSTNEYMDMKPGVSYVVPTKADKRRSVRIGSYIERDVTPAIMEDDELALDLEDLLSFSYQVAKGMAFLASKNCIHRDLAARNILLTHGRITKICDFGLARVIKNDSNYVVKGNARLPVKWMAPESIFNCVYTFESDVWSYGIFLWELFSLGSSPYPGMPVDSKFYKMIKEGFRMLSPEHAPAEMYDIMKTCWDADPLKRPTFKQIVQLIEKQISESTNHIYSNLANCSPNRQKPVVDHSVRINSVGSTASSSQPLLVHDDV
T3 sequence (Q6P5Z2 whole entry): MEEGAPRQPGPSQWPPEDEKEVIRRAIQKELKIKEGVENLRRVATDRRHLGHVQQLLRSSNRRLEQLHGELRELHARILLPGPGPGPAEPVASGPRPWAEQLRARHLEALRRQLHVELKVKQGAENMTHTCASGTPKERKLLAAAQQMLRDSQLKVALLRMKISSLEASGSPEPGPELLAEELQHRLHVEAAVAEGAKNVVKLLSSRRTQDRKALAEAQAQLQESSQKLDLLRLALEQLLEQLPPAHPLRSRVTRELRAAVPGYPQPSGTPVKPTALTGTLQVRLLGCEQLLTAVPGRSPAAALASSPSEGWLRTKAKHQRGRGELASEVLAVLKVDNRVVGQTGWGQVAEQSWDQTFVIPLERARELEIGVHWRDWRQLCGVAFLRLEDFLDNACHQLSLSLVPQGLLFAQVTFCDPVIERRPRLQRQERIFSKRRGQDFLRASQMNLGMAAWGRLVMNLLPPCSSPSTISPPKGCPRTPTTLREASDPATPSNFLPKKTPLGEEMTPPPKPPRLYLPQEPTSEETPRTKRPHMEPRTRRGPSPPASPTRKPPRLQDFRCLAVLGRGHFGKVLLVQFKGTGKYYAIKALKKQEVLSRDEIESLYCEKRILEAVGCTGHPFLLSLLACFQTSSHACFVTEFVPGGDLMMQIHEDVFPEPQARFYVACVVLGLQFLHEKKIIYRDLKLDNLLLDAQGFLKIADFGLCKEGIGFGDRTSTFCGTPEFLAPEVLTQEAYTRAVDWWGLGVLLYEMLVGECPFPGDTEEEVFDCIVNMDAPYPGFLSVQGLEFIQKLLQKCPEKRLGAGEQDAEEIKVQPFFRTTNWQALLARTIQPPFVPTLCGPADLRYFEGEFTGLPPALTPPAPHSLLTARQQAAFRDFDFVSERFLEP

SMILES | remaining activity at 10 µM (382 unique human kinases [1]) [%] | remaining activity at 10 µM (382 unique human kinases [2]) [%] | remaining activity at 10 µM (382 unique human kinases [3]) [%] | remaining activity at 10 µM (382 unique human kinases [4]) [%] | remaining activity at 10 µM (382 unique human kinases [5]) [%] | remaining activity at 10 µM (382 unique human kinases [6]) [%] | remaining activity at 10 µM (382 unique human kinases [7]) [%] | % Enzyme Activity (relative to DMSO controls) (382 unique human kinases [1]) [%] | % Enzyme Activity (relative to DMSO controls) (382 unique human kinases [2]) [%] | % Enzyme Activity (relative to DMSO controls) (382 unique human kinases [3]) [%] | % Enzyme Activity (relative to DMSO controls) (382 unique human kinases [4]) [%] | % Enzyme Activity (relative to DMSO controls) (382 unique human kinases [5]) [%] | % Enzyme Activity (relative to DMSO controls) (382 unique human kinases [6]) [%] | % Enzyme Activity (relative to DMSO controls) (382 unique human kinases [7]) [%]
CC(C)c1cc(-c2n[nH]c(=O)n2-c2ccc3c(ccn3C)c2)c(O)cc1O [Ganetespib (STA9090)] | 85.2 | 74.3 | 83.9 | 89.8 |  |  |  |  |  |  |  |  |  | 
CC(C)c1cc(-c2n[nH]c(=O)n2-c2ccc3c(ccn3C)c2)c(O)cc1O [Ganetespib] |  |  |  |  | 94.8 | 24.3 | 23.5 |  |  |  |  |  |  | 
CCNC(=O)c1noc(-c2cc(C(C)C)c(O)cc2O)c1-c1ccc(CN2CCOCC2)cc1 [Luminespib (AUY-922)] | 72.2 | 94.8 | 104 | 87.1 |  |  |  | 64.75 | 91.88 | 102.60 | 86.46 |  |  | 
CCNC(=O)c1noc(-c2cc(C(C)C)c(O)cc2O)c1-c1ccc(CN2CCOCC2)cc1 [Luminespib] |  |  |  |  | 92.5 | 61.7 | 26.4 |  |  |  |  | 91.72 | 61.63 | 26.15
